The structures appear in SMILES notation. Structures can show the parent of a compound that is named as a salt.

Consider three compounds from patent publication US20130267551A1, “SUBSTITUTED HYDROGENATED THIENO-PYRROLO[3,2-C]PYRIDINE, LIGANDS, A PHARMACEUTICAL COMPOSITION AND A METHOD FOR USING THE ABOVE” (ALLA CHEM, LLC, priority 2010, published 2013).

One assay deals with Adrenergic α1A. The assay is described as follows: competitive radioligand binding, Adrenergic α1A. The note with it: compound concentration of 1 μM. In outline: (§1)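 Test compounds were applied at 1 μM in competitive binding format, and activity was determined by measuring how much radio-labelled ligand they displaced from the target.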
The subject of the next assay is Adrenergic α1B. The assay is described as follows: competitive radioligand binding, Adrenergic α1B. Conditions: compound concentration of 1 μM. In outline:
as §1

The next assay concerns the target T1, Adrenergic α1D (Homo sapiens, UniProt P25100).
T1 sequence (P25100 1-572): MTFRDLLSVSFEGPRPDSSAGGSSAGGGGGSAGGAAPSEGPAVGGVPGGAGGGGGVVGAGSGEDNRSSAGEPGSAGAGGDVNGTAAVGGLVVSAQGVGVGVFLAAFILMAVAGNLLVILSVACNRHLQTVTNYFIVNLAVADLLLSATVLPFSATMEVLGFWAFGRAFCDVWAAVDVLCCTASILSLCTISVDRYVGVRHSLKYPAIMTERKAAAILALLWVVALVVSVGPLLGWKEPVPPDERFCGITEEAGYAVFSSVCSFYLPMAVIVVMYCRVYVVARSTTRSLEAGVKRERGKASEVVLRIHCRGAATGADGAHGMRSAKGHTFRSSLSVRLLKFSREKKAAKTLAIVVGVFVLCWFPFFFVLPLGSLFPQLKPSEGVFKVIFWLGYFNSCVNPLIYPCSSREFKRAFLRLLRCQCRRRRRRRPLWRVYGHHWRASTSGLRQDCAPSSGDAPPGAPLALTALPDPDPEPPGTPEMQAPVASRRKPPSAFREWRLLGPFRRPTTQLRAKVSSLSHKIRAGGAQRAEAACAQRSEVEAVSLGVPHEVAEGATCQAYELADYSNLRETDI
As to the kind of experiment: competitive radioligand binding, Adrenergic α1D. Conditions: compound concentration of 1 μM; read-out: radio-labelled ligand displacement, Adrenergic α1D. In outline: as §1

Another assay addresses T2, Adrenergic α2A (Homo sapiens, UniProt P08913).
T2 sequence (P08913 1-465): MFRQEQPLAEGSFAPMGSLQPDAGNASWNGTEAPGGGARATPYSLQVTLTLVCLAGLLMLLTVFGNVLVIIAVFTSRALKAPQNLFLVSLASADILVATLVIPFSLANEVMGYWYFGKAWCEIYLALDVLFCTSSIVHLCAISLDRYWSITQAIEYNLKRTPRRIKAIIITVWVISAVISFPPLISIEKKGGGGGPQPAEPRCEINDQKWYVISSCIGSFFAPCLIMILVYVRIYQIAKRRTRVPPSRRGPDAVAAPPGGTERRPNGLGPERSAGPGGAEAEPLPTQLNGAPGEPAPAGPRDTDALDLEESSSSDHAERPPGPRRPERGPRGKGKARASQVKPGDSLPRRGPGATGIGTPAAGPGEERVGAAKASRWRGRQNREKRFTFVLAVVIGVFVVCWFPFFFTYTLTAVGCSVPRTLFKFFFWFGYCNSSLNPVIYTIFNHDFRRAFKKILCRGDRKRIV
The assay is described as follows: competitive radioligand binding, Adrenergic α2A. The note with it: read-out: radio-labelled ligand displacement, Adrenergic α2A. The essentials:
as §1

Another assay addresses Dopaminergic D1 (Homo sapiens, UniProt P21728). As to the kind of experiment: competitive radioligand binding, Dopaminergic D1. Conditions: compound concentration of 1 μM; read-out: radio-labelled ligand displacement, Dopaminergic D1. The essentials:
as §1

The target of the next assay is T3, Dopaminergic D4.2 (Homo sapiens, UniProt P21917, DEL265-296).
T3 sequence (P21917 with tags, fused parts or gaps DEL265-296): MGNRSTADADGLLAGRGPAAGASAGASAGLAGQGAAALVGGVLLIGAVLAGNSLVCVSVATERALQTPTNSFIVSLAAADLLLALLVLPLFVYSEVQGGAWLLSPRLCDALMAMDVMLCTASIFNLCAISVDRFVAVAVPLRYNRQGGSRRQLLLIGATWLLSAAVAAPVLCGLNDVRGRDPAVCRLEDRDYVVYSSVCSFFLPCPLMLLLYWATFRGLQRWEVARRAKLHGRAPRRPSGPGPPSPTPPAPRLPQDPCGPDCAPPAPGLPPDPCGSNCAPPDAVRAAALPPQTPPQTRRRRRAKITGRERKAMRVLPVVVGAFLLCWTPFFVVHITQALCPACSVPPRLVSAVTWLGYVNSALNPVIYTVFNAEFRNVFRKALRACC
As to the kind of experiment: competitive radioligand binding, Dopaminergic D4.2. Conditions: compound concentration of 1 μM; read-out: radio-labelled ligand displacement, Dopaminergic D4.2. The essentials:
as §1

A further assay addresses Histaminergic H3 (Homo sapiens, UniProt Q9Y5N1). The assay is described as follows: competitive radioligand binding, Histaminergic H3. The note with it: compound concentration of 1 μM; read-out: radio-labelled ligand displacement, Histaminergic H3. In outline: as §1
The subject of another assay is Serotoninergic 5-HT1B. As to the kind of experiment: competitive radioligand binding, Serotoninergic 5-HT1B. The note with it: compound concentration of 1 μM. The essentials:
as §1

Another assay addresses Serotoninergic 5-HT2A (Homo sapiens, UniProt P28223). As to the kind of experiment: competitive radioligand binding, Serotoninergic 5-HT2A. Conditions: read-out: radio-labelled ligand displacement, Serotoninergic 5-HT2A. In outline: as §1
A further assay concerns the target Serotoninergic 5-HT2B (Homo sapiens, UniProt P41595). The assay is described as follows: competitive radioligand binding, Serotoninergic 5-HT2B. Conditions: read-out: radio-labelled ligand displacement, Serotoninergic 5-HT2B. In outline: as §1
A further assay deals with T4, Serotoninergic 5-HT2C (Homo sapiens, UniProt P28335).
T4 sequence (P28335 33-458): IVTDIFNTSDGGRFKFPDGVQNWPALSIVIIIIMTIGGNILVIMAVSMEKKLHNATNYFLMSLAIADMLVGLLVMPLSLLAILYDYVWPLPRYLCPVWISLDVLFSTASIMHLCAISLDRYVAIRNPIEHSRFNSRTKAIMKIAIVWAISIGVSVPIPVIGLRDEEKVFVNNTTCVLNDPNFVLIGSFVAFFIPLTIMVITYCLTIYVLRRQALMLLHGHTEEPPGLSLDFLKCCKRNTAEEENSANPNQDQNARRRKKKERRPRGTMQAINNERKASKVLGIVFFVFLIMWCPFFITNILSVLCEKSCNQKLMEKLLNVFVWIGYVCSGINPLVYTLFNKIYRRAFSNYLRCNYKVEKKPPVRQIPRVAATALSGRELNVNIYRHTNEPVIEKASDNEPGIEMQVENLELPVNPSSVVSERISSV
The assay is described as follows: competitive radioligand binding, Serotoninergic 5-HT2C. The note with it: read-out: radio-labelled ligand displacement, Serotoninergic 5-HT2C. The essentials:
as §1

Another assay concerns the target Serotoninergic 5-HT7 (Homo sapiens, UniProt P34969). The assay is described as follows: competitive radioligand binding, Serotoninergic 5-HT7. The note with it: compound concentration of 1 μM; read-out: radio-labelled ligand displacement, Serotoninergic 5-HT7. The essentials:
as §1

Sequence of Serotoninergic 5-HT2A (P28223 whole entry): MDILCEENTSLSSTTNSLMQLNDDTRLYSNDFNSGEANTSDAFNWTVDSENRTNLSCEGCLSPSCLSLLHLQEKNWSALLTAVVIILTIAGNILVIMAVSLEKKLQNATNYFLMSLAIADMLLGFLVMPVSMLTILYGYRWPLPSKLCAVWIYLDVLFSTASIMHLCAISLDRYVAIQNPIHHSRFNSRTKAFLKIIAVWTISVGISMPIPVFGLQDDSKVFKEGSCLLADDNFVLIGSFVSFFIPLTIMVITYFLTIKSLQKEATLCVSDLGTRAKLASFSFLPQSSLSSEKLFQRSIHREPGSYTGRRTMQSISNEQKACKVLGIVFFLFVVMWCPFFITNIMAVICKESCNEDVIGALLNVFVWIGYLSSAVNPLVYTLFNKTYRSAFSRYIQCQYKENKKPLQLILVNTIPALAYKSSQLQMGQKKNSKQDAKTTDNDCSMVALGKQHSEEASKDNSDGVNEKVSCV
Sequence of Histaminergic H3 (Q9Y5N1 whole entry): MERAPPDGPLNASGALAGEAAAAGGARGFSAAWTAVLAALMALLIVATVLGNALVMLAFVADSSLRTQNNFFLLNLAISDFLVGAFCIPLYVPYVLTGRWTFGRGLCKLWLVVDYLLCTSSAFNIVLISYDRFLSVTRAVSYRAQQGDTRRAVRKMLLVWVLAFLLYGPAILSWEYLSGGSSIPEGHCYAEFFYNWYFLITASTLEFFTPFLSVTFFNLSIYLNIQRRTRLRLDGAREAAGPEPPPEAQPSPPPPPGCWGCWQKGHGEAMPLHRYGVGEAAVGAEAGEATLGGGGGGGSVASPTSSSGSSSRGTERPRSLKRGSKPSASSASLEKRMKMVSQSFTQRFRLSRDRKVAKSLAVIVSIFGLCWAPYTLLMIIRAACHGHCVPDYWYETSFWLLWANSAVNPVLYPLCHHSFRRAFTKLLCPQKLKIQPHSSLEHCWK
Sequence of Dopaminergic D1 (P21728 whole entry): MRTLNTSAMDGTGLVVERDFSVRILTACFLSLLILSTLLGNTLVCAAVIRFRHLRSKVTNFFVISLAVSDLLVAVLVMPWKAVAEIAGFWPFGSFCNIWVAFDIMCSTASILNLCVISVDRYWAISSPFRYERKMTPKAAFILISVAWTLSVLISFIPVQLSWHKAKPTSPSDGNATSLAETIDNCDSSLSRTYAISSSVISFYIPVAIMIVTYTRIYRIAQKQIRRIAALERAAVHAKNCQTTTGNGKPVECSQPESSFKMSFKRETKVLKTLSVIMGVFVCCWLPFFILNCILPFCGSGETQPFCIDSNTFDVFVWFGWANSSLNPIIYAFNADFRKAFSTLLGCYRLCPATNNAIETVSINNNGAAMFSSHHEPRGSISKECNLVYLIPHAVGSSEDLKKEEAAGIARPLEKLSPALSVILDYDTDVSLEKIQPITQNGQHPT
Sequence of Serotoninergic 5-HT2B (P41595 whole entry): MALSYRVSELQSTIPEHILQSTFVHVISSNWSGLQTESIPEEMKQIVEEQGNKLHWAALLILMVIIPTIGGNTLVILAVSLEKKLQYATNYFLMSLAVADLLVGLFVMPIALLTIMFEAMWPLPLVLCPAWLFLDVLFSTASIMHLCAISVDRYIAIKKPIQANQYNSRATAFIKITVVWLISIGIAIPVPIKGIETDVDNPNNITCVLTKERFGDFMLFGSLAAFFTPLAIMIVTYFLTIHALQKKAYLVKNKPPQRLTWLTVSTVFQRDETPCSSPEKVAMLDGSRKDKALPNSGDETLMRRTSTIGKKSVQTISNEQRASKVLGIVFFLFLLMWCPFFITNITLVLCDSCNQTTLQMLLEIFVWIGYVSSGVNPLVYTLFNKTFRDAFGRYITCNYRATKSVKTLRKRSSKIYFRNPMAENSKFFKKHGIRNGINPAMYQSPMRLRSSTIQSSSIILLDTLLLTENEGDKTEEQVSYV
Sequence of Serotoninergic 5-HT7 (P34969 whole entry): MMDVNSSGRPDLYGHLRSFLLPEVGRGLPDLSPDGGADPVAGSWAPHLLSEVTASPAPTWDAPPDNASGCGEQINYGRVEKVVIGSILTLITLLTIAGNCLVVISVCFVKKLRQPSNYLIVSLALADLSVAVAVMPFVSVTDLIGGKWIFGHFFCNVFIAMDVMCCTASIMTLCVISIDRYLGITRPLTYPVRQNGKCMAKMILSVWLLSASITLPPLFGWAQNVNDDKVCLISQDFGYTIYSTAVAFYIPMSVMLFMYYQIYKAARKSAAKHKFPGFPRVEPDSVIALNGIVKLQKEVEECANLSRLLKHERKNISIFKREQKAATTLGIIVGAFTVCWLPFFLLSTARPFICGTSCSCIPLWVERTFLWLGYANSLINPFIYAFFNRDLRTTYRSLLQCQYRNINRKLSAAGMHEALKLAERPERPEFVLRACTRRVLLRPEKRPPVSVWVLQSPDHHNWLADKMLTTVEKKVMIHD

`Cc1cc2c3c(n(Cc4ccccc4)c2s1)CCN(C)C3.Cl` [3.5(1)•HCl, 8-Benzyl-2,5-dimethyl-5,6,7,8-tetrahydro-4H-thieno[3′,2′:4,5]pyrrolo[3,2-c]pyridine hydrochloride] had a radio-labelled ligand displacement, Adrenergic α1A with Adrenergic α1A of 77%. In the assay with Adrenergic α1B, this compound showed a radio-labelled ligand displacement, Adrenergic α1B of 57%. Moreover, the inhibition at 1 µM was 44% on Adrenergic α1D; 64% on Adrenergic α2A; 5% at Dopaminergic D1; -5% on Dopaminergic D4.2; 18% at Histaminergic H3; 100% on Serotoninergic 5-HT2A. In addition, the inhibition at 1 µM at Serotoninergic 5-HT2B was 90%; on Serotoninergic 5-HT2C, 97%; on Serotoninergic 5-HT7 it was 95%. In the assay with Serotoninergic 5-HT1B, the radio-labelled ligand displacement, Serotoninergic 5-HT1B turned out to be 10%.

`Cc1cc2c3c(n(CCc4ccccc4)c2s1)CCN(C)C3.Cl` [3.6(1)•HCl, 2,5-Dimethyl-8-(2-phenylethyl)-5,6,7,8-tetrahydro-4H-thieno[3′,2′:4,5]pyrrolo[3,2-c]pyridine hydrochloride] displayed a radio-labelled ligand displacement, Adrenergic α1A in the assay with Adrenergic α1A of 97%. Moreover, in the assay on Adrenergic α1B, the radio-labelled ligand displacement, Adrenergic α1B is 99%. Besides, the inhibition at 1 µM was 92% at Adrenergic α1D; 100% at Adrenergic α2A; 70% on Dopaminergic D1; 71% on Dopaminergic D4.2; -17% at Histaminergic H3; 101% at Serotoninergic 5-HT2A. The inhibition at 1 µM was 92% at Serotoninergic 5-HT2B, 99% at Serotoninergic 5-HT2C and 99% on Serotoninergic 5-HT7. The radio-labelled ligand displacement, Serotoninergic 5-HT1B with Serotoninergic 5-HT1B was found to be 47%.

In the assay with Adrenergic α1A, `Cc1cc2c3c(n(Cc4ccccc4)c2s1)CC1CCC3N1C` (stereo not drawn) [3.13(1)•HCl, 9-benzyl-2,10-dimethyl-4,5,6,7,8,9-hexahydro-4,7-epiminocyclohepta[b]thieno[3,2-d]pyrrole] came in with a radio-labelled ligand displacement, Adrenergic α1A of 61%. In addition, the radio-labelled ligand displacement, Adrenergic α1B in the assay with Adrenergic α1B was determined as 69%. In addition, the inhibition at 1 µM amounted to 43% at Adrenergic α1D; 65% on Adrenergic α2A; 40% at Dopaminergic D1; 31% on Dopaminergic D4.2; 12% on Histaminergic H3; 95% on Serotoninergic 5-HT2A. In addition, the inhibition at 1 µM at Serotoninergic 5-HT2B was determined as 90%; at Serotoninergic 5-HT2C, 81%; on Serotoninergic 5-HT7 it was 79%. For the same compound, the radio-labelled ligand displacement, Serotoninergic 5-HT1B with Serotoninergic 5-HT1B amounted to 20%.
